From paper PMC10385868 (Viruses, 2023)
Converted amounts (≈) assume the structure as drawn. Like-named read-outs stand apart in the source and are kept apart here.

Columns and labels:
[1] = system: VEEV-Trd; assay: microbe, parasite or virus in culture; type: cell-based, Venezuelan equine encephalitis virus
[2] = target: T1, VEEV nsP2 protease (Venezuelan equine encephalitis virus, UniProt P27282); assay: biochemical; type: biochemical
[3] = in vitro; settings: African green monkey
[4] = rat, microsomes
[5] = system: VEEV-Trinidad; assay: microbe, parasite or virus in culture; type: cell-based; settings: Venezuelan equine encephalitis virus
[6] = physchem
[7] = in vitro
[8] = system: cell viability
[9] = system: VEEV-infected HeLa cells; assay: microbe, parasite or virus in culture; type: cell-based, Venezuelan equine encephalitis virus
[10] = system: VEEV-TC83; assay: microbe, parasite or virus in culture; type: cell-based; settings: Venezuelan equine encephalitis virus, HeLa, read-out: VEEV-TC83 EC50
[11] = target: T1, VEEV nsP2 protease; assay: biochemical; settings: for kinact/KI: read-out: VEEV nsP2 PROTEASE k2/Ki
[12] = in vitro; settings: human
[13] = system: CHIKV; assay: microbe, parasite or virus in culture; type: cell-based; settings: Chikungunya virus, U2OS, read-out: CHIKV EC50
[14] = in vitro; settings: PAMPA
[15] = system: WEEV; assay: microbe, parasite or virus in culture; type: cell-based; settings: Western equine encephalitis virus, HeLa, read-out: WEEV EC50
[16] = in vitro; settings: SD, rat, microsomes
[17] = system: EEEV; assay: microbe, parasite or virus in culture; type: cell-based; settings: Eastern equine encephalitis virus, A549, read-out: EEEV EC50
[18] = system: VEEV Trinidad; type: cell-based, Venezuelan equine encephalitis virus
[19] = A549, read-out: VEEV-Trinidad EC50

T1 sequence (P27282 1003-1322 limits assumed): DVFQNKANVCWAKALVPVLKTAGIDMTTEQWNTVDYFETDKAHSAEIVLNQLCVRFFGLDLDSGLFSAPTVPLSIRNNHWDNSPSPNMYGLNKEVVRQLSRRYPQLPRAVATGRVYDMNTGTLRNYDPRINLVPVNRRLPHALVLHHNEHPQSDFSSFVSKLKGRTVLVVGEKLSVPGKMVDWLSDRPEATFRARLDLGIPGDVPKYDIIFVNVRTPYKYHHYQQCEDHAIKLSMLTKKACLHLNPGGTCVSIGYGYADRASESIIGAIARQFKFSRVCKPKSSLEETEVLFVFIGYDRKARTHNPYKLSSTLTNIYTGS

O=C(/C=C/c1cccs1)Nc1scc(-c2ccccc2)c1C(=O)O [MLS000773385-01]
EC50 ([1]; Venezuelan equine encephalitis virus): > 50 µM | IC50 [2]: 15 ± 2 µM | CC50 [3]: > 50 µM

CC(=O)NC1C(=O)N(CCN2CCOCC2)c2ccc(F)cc21 (stereo not drawn) [MLS001215963-01]
IC50 [2]: 16 ± 3 µM

O=c1cc(N2CCOCC2)oc2c1ccc1ccccc12 [NCGC00165840-02]
Permeability (PAMPA_Pion_Lipid) (PAMPA): 294.2 ×10⁻⁶ cm/s | Rat_SD/Microsomes t1/2 [4]: >30 m

CC(C)CCNC(=O)[C@H](CC(C)C)NC(=O)[C@H]1O[C@@H]1C(=O)NCCCO [NCGC00487434-01]
EC50 ([5]; A549): 70 to 80 µM | solubility [6]: 22 µg/mL (≈ 59.2 µM) | CC50 ([7]; African green monkey): > 100 µM | Rat_SD/Microsomes t1/2 [4]: >30 m

CCCNC(=O)[C@H]1O[C@H]1C(=O)N[C@H](C(=O)N1CCC[C@@H]1C(=O)OC)C(C)CC (stereo partly drawn) [NCGC00163431-03]
concentration showing inhibition in cell-based assays [1]: < 15 µM | concentration at which toxicity / cytotoxicity was seen ([8]; African green monkey): 100 µM | inhibition [9]: 83% | inhibition at 1.562 µM ([9]; Venezuelan equine encephalitis virus, HeLa): 82.9%

CCc1nc(N2CCN(C(=O)CCl)CC2)c2c3c(sc2n1)CC(C)CC3 (stereo not drawn) [MLS001212815-01]
EC50 ([1]; read-out: EC50): > 50 µM | CC50 [8]: > 50 µM | IC50 ([2]; read-out: IC50): > 200 µM

Cc1ccc(C2=NN(C(=O)CCl)C(c3ccco3)C2)o1 (stereo not drawn) [MLS001179882-01]
EC50 ([1]; read-out: EC50): > 50 µM | CC50 [8]: > 50 µM | IC50 ([2]; read-out: IC50): > 200 µM

O=C(Nc1ccccc1)NN(C(=O)CCl)c1ccccc1 [MLS001177992-01]
EC50 ([1]; read-out: EC50): > 50 µM | CC50 [8]: > 50 µM

CC(C)CCNC(=O)[C@H](CC(C)C)NC(=O)[C@H]1O[C@@H]1C(=O)NCc1cccnc1 [NCGC00488907-01]
EC50 [10]: 5.22 µM | kinact/KI [11]: 86 M⁻¹ s⁻¹ | CC50 [12]: > 50 µM | EC50 ([5]; A549): 6 µM | EC50 [5, 19]: 5.97 µM | EC50 [13]: 25.9 µM | Papp [14]: < 4.3 ×10⁻⁶ cm/s | EC50 [15]: 8.76 µM | half-life [16]: 6.4 min | EC50 [17]: < 50 µM | PAMPA: <4.3 ×10⁻⁶ cm/s | CC50 ([7]; African green monkey): > 100 µM | CC50 ([7]; human): > 50 µM | Rat_SD/Microsomes t1/2 [4]: 6.4 m

N=c1c2c(-c3ccccc3)c(-c3ccccc3)n(Cc3ccccc3)c2ncn1C1CCC(O)CC1 (stereo not drawn) [NCGC00247785-13]
antiviral activity in plaque assays [18]: notable antiviral activities

CC[C@H]1CN2CCc3cc(OC)c(OC)cc3[C@@H]2C[C@@H]1C[C@H]1NCCc2cc(OC)c(OC)cc21 [emetine]
antiviral activity in plaque assays [18]: notable antiviral activities

Cc1cc(C(=O)CCl)c(C)n1-c1cccc([N+](=O)[O-])c1 [MLS000877947-01]
EC50 ([1]; read-out: EC50): > 50 µM | CC50 [8]: > 50 µM | IC50 ([2]; read-out: IC50): > 200 µM

CC(C)CCNC(=O)C(CC(C)C)NC(=O)C1OC1C(=O)O (stereo not drawn) [NCGC00018306-02]
concentration showing inhibition in cell-based assays [1]: < 15 µM

CC(C)CCNC(=O)[C@H](CC(C)C)NC(=O)[C@H]1O[C@@H]1C(=O)NCc1ccncc1 [NCGC00488908-01]
EC50 [10]: 9.23 µM | kinact/KI [11]: 23 M⁻¹ s⁻¹ | CC50 [12]: > 50 µM | EC50 ([5]; A549): 9.5 µM | EC50 [5, 19]: 9.45 µM | EC50 [13]: 50 µM | Papp [14]: 7.6 ×10⁻⁶ cm/s | EC50 [15]: 14.6 µM | half-life [16]: > 30 min | EC50 [17]: ≥ 100 µM | PAMPA: 7.6 ×10⁻⁶ cm/s | solubility [6]: > 60 µg/mL | CC50 ([7]; African green monkey): > 100 µM | CC50 ([7]; human): > 50 µM | Rat_SD/Microsomes t1/2 [4]: >30 m

CCC(C)C(NC(=O)C1OC1C(=O)NC(CC(C)C)C(=O)NCCC(C)C)C(=O)N1CCCC1C(=O)OCc1ccccc1 (stereo not drawn) [NCGC00484087-01]
EC50 [10]: 2.17 µM | Ki ([11]; Ki): 5 µM | kinact/KI [11]: 100 M⁻¹ s⁻¹ | CC50 [12]: > 50 µM | EC50 ([5]; A549): 8 µM | EC50 [5, 19]: 7.9 µM | Papp [14]: 1090 ×10⁻⁶ cm/s | EC50 [15]: 5.74 µM | half-life [16]: 1.5 min | EC50 [17]: 13.2 µM | PAMPA: 1089.1 ×10⁻⁶ cm/s | solubility [6]: 4.1 µg/mL (≈ 6.67 µM) | CC50 ([7]; African green monkey): > 100 µM | CC50 ([7]; human): > 50 µM | Rat_SD/Microsomes t1/2 [4]: 1.5 m
